Assays:
[1] = system: E-cadherin, N-cadherin, Vimentin in Hey cells; experiment: Expression of EMT related proteins in cells; assay type: cell-based, human
[2] = system: MCM2, CDK4, Cyclin D1, P21; experiment: Immunohistochemical assay of tumor body cell cycle related proteins in tumor bearing nude mice; assay type: in vivo, BALB/c nude mice; conditions: nude mouse tumor body, compared to the Control group
Description: The immunohistochemistry of tumor body cyclin in tumor bearing nude mice after intervention with DDP, CA, BDMC, and combined administration was shown in FIG. 28. The image was magnified by 400×, with a scale of 10 μM. The expression of MCM2, CDK4, and Cyclin D1 proteins in the CA group, BDMC group, and CA+BDMC group decreased compared to the Control group; and the expression of MCM2, CDK4, and Cyclin D1 proteins in the CA+BDMC group decreased compared to the CA group and BDMC group. The expression of P21 protein in the CA group, BDMC group, and CA+BDMC group increased compared to the Control group; and the expression of P21 protein in the CA+BDMC group increased compared to the CA group and BDMC group.

Hey ovarian cancer cell = experiment: Tumor bearing nude mouse model (tumor volume, tumor inhibition rate, body weight); assay type: in vivo, BALB/c nude mice; conditions: intraperitoneal, 15 days; DDP 3 mg/kg, CA 80 mg/kg, BDMC 5 mg/kg; compared to the Control group, P<0.01
Description: Newly housed BALB/c nude mice were placed in an SPF grade feeding room laminar flow rack for adaptive feeding for one week, and the experimental animal status was adjusted. A Hey ovarian cancer cell was cultivated to the logarithmic growth stage, and the original culture medium was discarded. The Hey ovarian cancer cell was washed with PBS buffer, added with 0.1% trypsin digestion for digestion, added with the corresponding culture medium to terminate digestion, centrifuged at 1000 rpm for 3 minutes, and added with PBS buffer to prepare a cell suspension. The cell was counted using a hemocytometer, and the cell concentration was quantified to 5×10^7 cells/mL. After grasping and fixing the nude mouse with the left hand, and the skin at a needle inserting site on the right forelimb axilla of the nude mouse was disinfected with a 75% alcohol cotton ball. A disposable 1 mL syringe was used to inject approximately 100 μL of cell suspension subcutaneously into the posterior axilla of the right forelimb in an oblique stabbing inserting needle mode, so that each nude mouse was injected with approximately 5×10^6 cells. After vaccination, the needle inserting site was gently pressed with a cotton ball to prevent the cell suspension from leaking from a needle hole. The growth status of tumors at the vaccination site of nude mice was observed daily. After about one week, if the tumors at the vaccination site were compacted and appeared light red in color, it could be considered as successful tumor growth. At this time, the nude mice were randomly divided into 5 groups, a Control group intraperitoneally injected with physiological saline for 1 day each time; a DDP group intraperitoneally injected with cisplatin, 3 mg/kg, 3 d/time; a CA group intraperitoneally injected with CA, 80 mg/kg, 1 d/time; a BDMC group intraperitoneally injected with BDMC, 5 mg/kg, 1 d/time; a CA+BDMC group intraperitoneally injected with CA 80 mg/kg+BDMC 5 mg/kg, 1 d/time, 8 animals per group. A tumor length (L) and a […] were measured with a vernier caliper every 3 days to calculate a tumor volume. After 15 days of administration, nude mice were euthanized by dislocation of cervical vertebra, and tumor tissue was dissected. The tumor weight was weighed to calculate the tumor inhibition rate. The tumor tissue was stored in two batches at −80° C. and fixed with 4% paraformaldehyde.

[3] = system: E-cadherin, N-cadherin, Vimentin in SKOV3 cells; experiment: Expression of EMT related proteins in cells; assay type: cell-based, human
[4] = system: MCM2 protein in Hey cells; experiment: MCM2 protein expression in ovarian cancer cell after intervention; assay type: cell-based, human; conditions: 24 hours, 100 μmol/L CA, 6.25 μmol/L BDMC, compared to the Control group
Description: (§1) The effect of intervention on MCM2 protein expression in the SKOV3 and Hey ovarian cancer cells for 24 hours in the CA group using 100 μmol/L CA, the BDMC group using 6.25 μmol/L BDMC, and the CA+BDMC group using 100 μmol/L CA+6.25 μmol/L BDMC in Example 1 was shown in FIGS. 16A-16B, wherein A represented the expression of MCM2 protein in SKOV3 cells; B represented the expression of MCM2 protein in Hey cells compared to the Control group, #P<0.05, ##P<0.01; and compared with the CA+BDMC group, &P<0.05, &&P<0.01.

[5] = system: MCM2 protein in SKOV3 cells; experiment: as above; assay type: cell-based, human; conditions: SKOV3, 24 hours, 100 μmol/L CA, 6.25 μmol/L BDMC; compared to the Control group
Description: as §1

[6] = Hey OE-MCM2 cells (MCM2 overexpression), vs OE-MCM2 group
[7] = Hey OE-NC cells (empty vector), vs OE-NC group
[8] = Hey sh-MCM2 cells (MCM2 knockdown), vs sh-MCM2 group
[9] = Hey sh-NC cells (empty vector), vs sh-NC group
[10] = SKOV3 OE-MCM2 cells (MCM2 overexpression), vs OE-MCM2 group
[11] = SKOV3 OE-NC cells (empty vector), vs OE-NC group
[12] = SKOV3 sh-MCM2 cells (MCM2 knockdown), vs sh-MCM2 group
[13] = SKOV3 sh-NC cells (empty vector), vs sh-NC group

**Q.** With `COc1ccc(-c2coc3cc(O)ccc3c2=O)cc1O` [CA, calycosin] as the molecule, how does the “expression of E-cadherin” value [1, 6] read?
**A.** Its value is “no significant change”.

**Q.** What about the “expression of N-cadherin” value [1, 6] of the same molecule?
**A.** Its value is “no significant change”.

**Q.** What about the “expression of Vimentin” value [1, 6] of the same molecule?
**A.** The value was “no significant change”.

**Q.** And the “expression of E-cadherin” value [1, 7]?
**A.** Its value is “significantly increased”.

**Q.** What about the “expression of N-cadherin” value [1, 7] of the same molecule?
**A.** Its value is “significantly decreased”.

**Q.** And the “expression of Vimentin” value [1, 7]?
**A.** Its value is “significantly decreased”.

**Q.** And the “expression of E-cadherin” value [1, 8]?
**A.** The value was “no significant change”.

**Q.** And the “expression of N-cadherin” value [1, 8]?
**A.** Its value is “no significant change”.

**Q.** And the “expression of Vimentin” value [1, 8]?
**A.** Its value is “no significant change”.

**Q.** What about the “expression of E-cadherin” value [1, 9] of the same molecule?
**A.** Its value is “significantly increased”.

**Q.** And the “expression of N-cadherin” value [1, 9]?
**A.** The value was “significantly decreased”.

**Q.** And the “expression of Vimentin” value [1, 9]?
**A.** The value was “significantly decreased”.

**Q.** What about the “expression of CDK4 protein (immunohistochemistry)” value [2] of the same molecule?
**A.** Its value is “decreased”.

**Q.** And the “expression of Cyclin D1 protein (immunohistochemistry)” value [2]?
**A.** Its value is “decreased”.

**Q.** And the “expression of MCM2 protein (immunohistochemistry)” value [2]?
**A.** The value was “decreased”.

**Q.** What about the “expression of P21 protein (immunohistochemistry)” value [2] of the same molecule?
**A.** Its value is “increased”.

**Q.** And the tumor inhibition rate (Hey ovarian cancer cell)?
**A.** Its tumor inhibition rate is “significantly increased”.

**Q.** And the tumor volume size (Hey ovarian cancer cell)?
**A.** Its tumor volume size is “significantly reduced”.

**Q.** What about the “expression of E-cadherin” value [3, 10] of the same molecule?
**A.** Its value is “no significant change”.

**Q.** What about the “expression of N-cadherin” value [3, 10] of the same molecule?
**A.** The value was “no significant change”.

**Q.** And the “expression of Vimentin” value [3, 10]?
**A.** Its value is “no significant change”.

**Q.** What about the “expression of E-cadherin” value [3, 11] of the same molecule?
**A.** The value was “significantly increased”.

**Q.** What about the “expression of N-cadherin” value [3, 11] of the same molecule?
**A.** Its value is “significantly decreased”.

**Q.** And the “expression of Vimentin” value [3, 11]?
**A.** The value was “significantly decreased”.

**Q.** And the “expression of E-cadherin” value [3, 12]?
**A.** Its value is “no significant change”.

**Q.** What about the “expression of N-cadherin” value [3, 12] of the same molecule?
**A.** The value was “no significant change”.

**Q.** And the “expression of Vimentin” value [3, 12]?
**A.** Its value is “no significant change”.

**Q.** What about the “expression of E-cadherin” value [3, 13] of the same molecule?
**A.** Its value is “significantly increased”.

**Q.** And the “expression of N-cadherin” value [3, 13]?
**A.** Its value is “significantly decreased”.

**Q.** And the “expression of Vimentin” value [3, 13]?
**A.** The value was “significantly decreased”.

**Q.** And the “expression of the MCM2 protein” value [4]?
**A.** The value was “significantly decreased”.

**Q.** And the “expression of the MCM2 protein” value [5]?
**A.** The value was “significantly decreased”.

Source: patent US20250235499A1, “ANTI-OVARIAN CANCER PHARMACEUTICAL COMPOSITION AND ACTION TARGET THEREOF” (Zhejiang Chinese Medical University, priority 2024, published 2025)
